Where two headings read alike, the source gives them in different places.
Experiments:
[1] = test system: Key Grass and Sedge Weeds as well as Grass Crops; experiment: Post-Emergent Test II (Table 6); assay type: in vivo; conditions: post-emergence, 336 h, 14 days after application; for pest or weed control at 70 g/ha: 70 g ai/ha; for pest or weed control at 140 g/ha: 140 g ai/ha
Procedure, shortened: (§1)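 Plants grown in a greenhouse (~15 h photoperiod, 23-29° C day) to first or second true leaf stage were sprayed post-emergence at 187 L/ha with compound in acetone/DMSO-based aqueous spray containing crop oil concentrate and surfactant, applied at a high rate plus ½× to 1/16× serial rates. Injury was scored visually 14 days later, 0-100% versus untreated plants.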

[2] = test system: Key Broadleaf Weed and Crop Species; experiment: Post-Emergent Test II (Table 5); assay type: in vivo; conditions: post-emergence, 336 h; for pest or weed control at 70 g/ha: application rate 70 (kg ai/ha; footnote: g ai/ha); for pest or weed control at 140 g/ha: application rate 140 (kg ai/ha; footnote: g ai/ha)
Procedure, shortened: as §1

[3] = CYPSS, read-out: Visual Growth Reduction (%) 14 Days After Application CYPSS
[4] = DIGSA: crabgrass (Digitaria sanguinalis), read-out: Visual Growth Reduction (%) 14 Days After Application DIGSA
[5] = ECHSS, read-out: Visual Growth Reduction (%) 14 Days After Application ECHSS
[6] = ORYSS (crop), read-out: Visual Growth Reduction (%) 14 Days After Application ORYSS
[7] = SORVU: grain sorghum (Sorghum vulgare), read-out: Visual Growth Reduction (%) 14 Days After Application SORVU
[8] = TRZSS (crop), read-out: Visual Growth Reduction (%) 14 Days After Application TRZSS
[9] = ZEAMX: maize, corn (Zea mays), read-out: Visual Growth Reduction (%) 14 Days After Application ZEAMX
[10] = Abutilon theophrasti, ABUTH: velvetleaf (Abutilon theophrasti), read-out: Visual Growth Reduction (%) 14 Days After Application ABUTH
[11] = Amaranthus retroflexus, AMARE: redroot pigweed (Amaranthus retroflexus), read-out: Visual Growth Reduction (%) 14 Days After Application AMARE
[12] = Brassica napus, BRSSS: oilseed rape, canola (Brassica napus), read-out: Visual Growth Reduction (%) 14 Days After Application BRSSS
[13] = Chenopodium album, CHEAL: lambsquarters (Chenopodium album), read-out: Visual Growth Reduction (%) 14 Days After Application CHEAL
[14] = Euphorbia heterophylla, EPHHL: wild poinsettia (Euphorbia heterophylla), read-out: Visual Growth Reduction (%) 14 Days After Application EPHHL
[15] = Helianthus annuus, HELAN: sunflower (Helianthus annuus), read-out: Visual Growth Reduction (%) 14 Days After Application HELAN
[16] = Viola tricolor, VIOTR: wild pansy (Viola tricolor), read-out: Visual Growth Reduction (%) 14 Days After Application VIOTR
[17] = SETFA: giant foxtail (Setaria faberi), read-out: Visual Growth Reduction (%) 14 Days After Application SETFA

| Structure (SMILES) | pest or weed control at 70 g/ha [1, 3] | pest or weed control at 140 g/ha [1, 3] | pest or weed control at 70 g/ha [1, 4] | pest or weed control at 140 g/ha [1, 4] | pest or weed control at 70 g/ha [1, 5] | pest or weed control at 140 g/ha [1, 5] | pest or weed control at 70 g/ha [1, 6] | pest or weed control at 140 g/ha [1, 6] | pest or weed control at 70 g/ha [1, 7] | pest or weed control at 140 g/ha [1, 7] | pest or weed control at 70 g/ha [1, 8] | pest or weed control at 140 g/ha [1, 8] | pest or weed control at 70 g/ha [1, 9] | pest or weed control at 140 g/ha [1, 9] | pest or weed control at 70 g/ha [2, 10] | pest or weed control at 140 g/ha [2, 10] | pest or weed control at 70 g/ha [2, 11] | pest or weed control at 140 g/ha [2, 11] | pest or weed control at 70 g/ha [2, 12] | pest or weed control at 140 g/ha [2, 12] | also measured |
| --- | --- | --- | --- | --- | --- | --- | --- | --- | --- | --- | --- | --- | --- | --- | --- | --- | --- | --- | --- | --- | --- |
| COC(=O)c1nc(-c2ccc(C(F)(F)F)c(F)c2C)c(F)c(N)c1Cl [Compound 41] | 0 to 29% | 95 to 100% | 0 to 29% | 0 to 29% | 0 to 29% | 0 to 29% | 0 to 29% | 0 to 29% | 0 to 29% | 0 to 29% | 0 to 29% | 0 to 29% | 0 to 29% | 45 to 59% | 75 to 84% | 60 to 74% | 0 to 29% | 0 to 29% | 0 to 29% | 0 to 29% | pest or weed control at 70 g/ha [2, 13]: 45 to 59%; pest or weed control at 140 g/ha [2, 13]: 85 to 94%; pest or weed control at 70 g/ha [2, 14]: 0 to 29%; pest or weed control at 140 g/ha [2, 14]: 45 to 59%; pest or weed control at 70 g/ha [2, 15]: 95 to 100%; pest or weed control at 140 g/ha [2, 15]: 95 to 100%; pest or weed control at 70 g/ha [2, 16]: 0 to 29%; pest or weed control at 140 g/ha [2, 16]: 0 to 29% |
| COC(=O)c1nc(-c2ccc(Cl)c(F)c2CO)cc(N)c1Cl [Compound 29, Methyl 4-amino-3-chloro-6-(4-chloro-3-fluoro-2-(hydroxymethyl)phenyl)picolinate] | 0 to 29% | 0 to 29% | 0 to 29% | 0 to 29% | 0 to 29% | 0 to 29% | 0 to 29% | 0 to 29% | 0 to 29% | 0 to 29% | 0 to 29% | 0 to 29% | 0 to 29% | 0 to 29% | 0 to 29% | 0 to 29% | 0 to 29% | 0 to 29% | 0 to 29% | 0 to 29% | pest or weed control at 70 g/ha [1, 17]: 0 to 29%; pest or weed control at 140 g/ha [1, 17]: 0 to 29%; pest or weed control at 70 g/ha [2, 13]: 85 to 94%; pest or weed control at 140 g/ha [2, 13]: 85 to 94%; pest or weed control at 70 g/ha [2, 14]: 0 to 29%; pest or weed control at 140 g/ha [2, 14]: 0 to 29%; pest or weed control at 70 g/ha [2, 15]: 0 to 29%; pest or weed control at 140 g/ha [2, 15]: 0 to 29%; pest or weed control at 70 g/ha [2, 16]: 0 to 29%; pest or weed control at 140 g/ha [2, 16]: 0 to 29% |
| COC(=O)c1nc(-c2ccc(I)c(F)c2C)cc(N)c1Cl [Compound 25, methyl 4-amino-3-chloro-6-(3-fluoro-4-Iodo-2-methylphenyl)picolinate] | 0 to 29% | 0 to 29% | 0 to 29% | 0 to 29% | 0 to 29% | 0 to 29% | 0 to 29% | 0 to 29% | 0 to 29% | 0 to 29% | 0 to 29% | 0 to 29% | 0 to 29% | 0 to 29% | 95 to 100% | 95 to 100% | 95 to 100% | 95 to 100% | 60 to 74% | 75 to 84% | pest or weed control at 70 g/ha [1, 17]: 0 to 29%; pest or weed control at 140 g/ha [1, 17]: 0 to 29%; pest or weed control at 70 g/ha [2, 13]: 85 to 94%; pest or weed control at 140 g/ha [2, 13]: 85 to 94%; pest or weed control at 70 g/ha [2, 14]: 0 to 29%; pest or weed control at 140 g/ha [2, 14]: 0 to 29%; pest or weed control at 70 g/ha [2, 15]: 60 to 74%; pest or weed control at 140 g/ha [2, 15]: 75 to 84%; pest or weed control at 70 g/ha [2, 16]: 0 to 29%; pest or weed control at 140 g/ha [2, 16]: 0 to 29% |

From US10765114B2, “4-amino-6-(pyridyl and 2-substitutedphenyl)-picolinates and 6-amino-2-(pyridyl and 2-substitutedphenyl)-pyrimidine-4-carboxylates and their use as herbicides” (Dow AgroSciences LLC, priority 2013, dated 2020)
